ChEMBL document CHEMBL1201862, “PubChem BioAssay data set” (2004)
Blank lines part the entries; values can stand above or below the compound they belong to. Active and inactive are the calls of the source.

What was measured:
HEK293 [1] = assay: cells; type: functional, cell-based; conditions: Homo sapiens
HEK293 [2] = assay: NOD2 signaling inhibitors in MDP-stimulated cells, cell-based, uHTS, luminescence (AID 2001); type: functional; conditions: Homo sapiens
HEK293 [3] = assay: cells; type: functional, cell-based; conditions: Homo sapiens; remark: listed apart in the source
[4] = target: Nucleotide-binding oligomerization domain-containing protein 2 (Homo sapiens, UniProt Q9HC29); assay: inhibition of NOD2-driven NF-kB reporter – cell-based, luminescence, uHTS, HEK293 (AID 1566); type: functional
Chain of Nucleotide-binding oligomerization domain-containing protein 2 (Q9HC29 whole entry, the tested form may be a part): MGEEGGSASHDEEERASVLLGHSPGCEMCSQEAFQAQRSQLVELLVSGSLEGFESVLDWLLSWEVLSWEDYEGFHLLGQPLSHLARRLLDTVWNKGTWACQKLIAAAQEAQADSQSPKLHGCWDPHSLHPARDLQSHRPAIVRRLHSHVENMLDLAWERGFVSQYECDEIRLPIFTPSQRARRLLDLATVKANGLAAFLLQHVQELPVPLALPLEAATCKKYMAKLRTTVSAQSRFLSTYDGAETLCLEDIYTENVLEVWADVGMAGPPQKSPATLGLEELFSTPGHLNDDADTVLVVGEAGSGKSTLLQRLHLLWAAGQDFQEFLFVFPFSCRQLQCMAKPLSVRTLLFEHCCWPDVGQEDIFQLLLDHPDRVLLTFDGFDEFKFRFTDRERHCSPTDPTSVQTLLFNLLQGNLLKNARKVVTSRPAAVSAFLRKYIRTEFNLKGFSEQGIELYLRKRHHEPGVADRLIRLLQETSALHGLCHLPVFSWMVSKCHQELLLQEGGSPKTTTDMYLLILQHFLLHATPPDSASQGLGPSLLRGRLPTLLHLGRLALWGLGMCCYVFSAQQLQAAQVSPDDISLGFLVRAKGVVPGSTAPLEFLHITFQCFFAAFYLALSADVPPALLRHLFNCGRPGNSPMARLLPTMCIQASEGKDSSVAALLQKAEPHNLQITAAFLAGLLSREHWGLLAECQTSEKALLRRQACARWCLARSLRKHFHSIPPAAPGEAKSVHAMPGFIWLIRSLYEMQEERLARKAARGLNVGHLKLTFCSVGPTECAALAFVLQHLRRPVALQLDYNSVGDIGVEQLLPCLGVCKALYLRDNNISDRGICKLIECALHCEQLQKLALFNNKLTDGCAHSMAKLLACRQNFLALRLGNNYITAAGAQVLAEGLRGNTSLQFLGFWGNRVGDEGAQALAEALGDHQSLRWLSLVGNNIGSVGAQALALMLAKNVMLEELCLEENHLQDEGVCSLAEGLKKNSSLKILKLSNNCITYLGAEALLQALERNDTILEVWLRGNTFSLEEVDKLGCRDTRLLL

HEK293 [5] = assay: cells; type: functional, cell-based; conditions: Homo sapiens; remark: listed apart in the source
[6] = target: Dual specificity tyrosine-phosphorylation-regulated kinase 1A (Rattus norvegicus, UniProt Q63470); type: biochemical, Homo sapiens
HEK293 [7] = assay: inhibition of NOD1-driven NF-kB reporter – cell-based, luminescence, uHTS, primary screen (AID 1578); type: functional; conditions: Homo sapiens
[8] = target: Beta-2 adrenergic receptor (Homo sapiens, UniProt P07550); assay: ADRB2 activation measured by internalization – cell-based, FAP fluorogen, flow cytometry, cherry pick 1, dose response (AID 588763); type: functional
Chain of Beta-2 adrenergic receptor (P07550 whole entry): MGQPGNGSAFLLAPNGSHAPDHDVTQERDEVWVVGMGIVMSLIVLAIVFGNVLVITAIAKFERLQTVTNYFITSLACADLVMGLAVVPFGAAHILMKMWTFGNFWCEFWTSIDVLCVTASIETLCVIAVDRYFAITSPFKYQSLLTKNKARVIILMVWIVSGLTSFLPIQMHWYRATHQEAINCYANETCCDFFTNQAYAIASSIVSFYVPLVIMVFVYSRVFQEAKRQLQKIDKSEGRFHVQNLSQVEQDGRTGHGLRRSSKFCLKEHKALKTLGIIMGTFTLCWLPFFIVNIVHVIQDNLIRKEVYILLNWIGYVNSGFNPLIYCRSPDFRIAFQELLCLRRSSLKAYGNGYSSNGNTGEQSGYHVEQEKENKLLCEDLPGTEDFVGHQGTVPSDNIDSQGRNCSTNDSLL

Compound: CN(C)S(=O)(=O)c1cccc(NC(S)=Nc2cccc3cnccc23)c1
IC50 (HEK293 [1]): 13.4 µM (active)
IC50 (HEK293 [2]): 4.64 µM (active)
IC50 (HEK293 [3]): > 20 µM (inactive)
EC50 [4]: 9.33 µM (active)
IC50 (HEK293 [5]): 3.39 µM (active)
AC50 [6]: 3.86 µM (active)
EC50 (HEK293 [7]): 10.6 µM (active)

EC50 [8]: 0.038 µM (active)
Compound: CCN(CC)S(=O)(=O)c1cc(NC(=O)C2=COCCO2)ccc1Cl
